Laboratory results: patent US20140303164A1, “THERAPEUTIC COMPOUNDS” (Gilead Sciences, Inc., priority 2013, published 2014)

Tests used:
HIV-IIIb = assay: Test A: Antiviral Assay in MT4 Cells; type: cell-based, HIV-1; details: for inhibition at 0.2 µM / inhibition at 2 µM: Human immunodeficiency virus 1, IIIB, MT4, 120 h; for inhibition at 0.2 µM: read-out: % inhibition at 0.2 μM; for inhibition at 2 µM: read-out: % inhibition at 2 μM
Description: Test A: Antiviral Assay in MT4 Cells
MT-4 cells were next mixed with HIV-IIIb at an m.o.i of 0.003 for 1 hour, after which time 35 μL of virus/cell mixture (2000 cells) was immediately added to each well containing 40 μL of diluted compound. The plates were then incubated at 37° C. for 5 days. […] Cell lysis was carried out by incubating at room temperature for 10 min and then chemiluminescence was read.

[1] = Test B: Cytotoxicity Assay; type: cell-based; details: human, uninfected MT-4 cells, same protocol as Test A
In short: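 Uninfected MT-4 cells (2000 per well) incubated with diluted compound at 37° C. for 5 days, following the antiviral protocol without HIV-IIIb.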

SMILES	inhibition at 0.2 µM (HIV-IIIb) [%]	inhibition at 2 µM (HIV-IIIb) [%]	CC50 at 5 days [1] [µM]	Response at 0.2 μM (HIV-IIIb; percent inhibition of virus-induced cell killing at 0.2 μM, comparison with previously published compounds (WO 2013/006738)) [%]	Response at 2 μM (HIV-IIIb; percent inhibition of virus-induced cell killing at 2 μM, comparison with previously published compounds (WO 2013/006738)) [%]
Cn1nc(NS(C)(=O)=O)c2c(Cl)ccc(-c3ccc(C#CC(C)(C)O)nc3[C@H](Cc3cc(F)cc(F)c3)NC(=O)Cn3nc(C(F)(F)F)c4c3CCCC4)c21 [Compound 124, (S)—N-(1-(3-(4 chloro-1-methyl-3-(methylsulfonamido)-1H-indazol-7-yl)-6-(3-hydroxy-3-methylbut-1-yn-1-yl)pyridin-2-yl)-2-(3,5-difluorophenyl)ethyl)-2-(3-(trifluoromethyl)-4,5,6,7-tetrahydro-1H-indazol-1-yl)acetamide]	97	97	9.14		
CC(=O)Nc1nn(C)c2c(-c3ccc(C#CC(C)(C)O)nc3[C@H](Cc3cc(F)cc(F)c3)NC(=O)Cn3nc(C(F)F)c4c3C(F)(F)[C@@H]3C[C@H]43)ccc(Cl)c12 [Compound 94, N—((S)-1-(3-(3-acetamido-4-chloro-1-methyl-1H-indazol-7-yl)-6-(3-hydroxy-3-methylbut-1-yn-1-yl)pyridin-2-yl)-2-(3,5-difluorophenyl)ethyl)-2-((3b-S,4aR)-3-(difluoromethyl)-5,5-difluoro-3b,4,4a,5-tetrahydro-1H-cyclopropa[3,4]cyclopenta[1,2-c]pyrazol-1-yl)acetamide]	100	100	7.58		
CC(C)(O)C#Cc1ccc(-c2ccc(Cl)n3c(N)nnc23)c([C@H](Cc2cc(F)cc(F)c2)NC(=O)Cn2nc(C(F)F)c3c2C(F)(F)[C@@H]2C[C@H]32)n1 [Compound 106E, N—((S)-1-(3-(3-amino-5-chloro-[1,2,4]triazolo[4,3-a]pyridin-8-yl)-6-(3-hydroxy-3-methylbut-1-yn-1-yl)pyridin-2-yl)-2-(3,5-difluorophenyl)ethyl)-2-((3b-S,4aR)-3-(difluoromethyl)-5,5-difluoro-3b,4,4a,5-tetrahydro-1H-cyclopropa[3,4]cyclopenta[1,2-c]pyrazol-1-yl)acetamide]	95	96	12.4		
COCCC(=O)Nc1nn(C)c2c(-c3ccc(C#CC(C)(C)O)nc3[C@H](Cc3cc(F)cc(F)c3)NC(=O)Cn3nc(C(F)F)c4c3C(F)(F)[C@@H]3C[C@H]43)ccc(Cl)c12 [Compound 85, N-(4-chloro-7-(2-((S)-1-(2-((3b-S,4aR)-3-(difluoromethyl)-5,5-difluoro-3b,4,4a,5-tetrahydro-1H-cyclopropa[3,4]cyclopenta[1,2-c]pyrazol-1-yl)acetamido)-2-(3,5-difluorophenyl)ethyl)-6-(3-hydroxy-3-methylbut-1-yn-1-yl)pyridin-3-yl)-1-methyl-1H-indazol-3-yl)-3-methoxypropanamide]	96	96	7.85		
CC(C)(O)C#Cc1ccc(-c2ccc(F)c(C(N)=O)c2)c([C@H](Cc2cc(F)cc(F)c2)NC(=O)Cn2nc(C(F)F)c3c2C(F)(F)CCC3(F)F)n1 [Compound 28, (S)-5-(2-(1-(2-(3 (difluoromethyl)-4,4,7,7-tetrafluoro-4,5,6,7-tetrahydro-1H-indazol-1-yl)acetamido)-2-(3,5-difluorophenyl)ethyl)-6-(3-hydroxy-3-methylbut-1-yn-1-yl)pyridin-3-yl)-2-fluorobenzamide]			12.2	71	84
CNc1nn(C)c2c(-c3ccc(C#CC(C)(C)O)nc3[C@H](Cc3cc(F)cc(F)c3)NC(=O)Cn3nc(C(F)F)c4c3C(F)(F)[C@@H]3C[C@H]43)ccc(Cl)c12 [Compound 81, N—((S)-1-(3-(4-chloro-1-methyl-3-(methylamino)-1H-indazol-7-yl)-6-(3-hydroxy-3-methylbut-1-yn-1-yl)pyridin-2-yl)-2-(3,5-difluorophenyl)ethyl)-2-((3bS,4aR)-3-(difluoromethyl)-5,5-difluoro-3b,4,4a,5-tetrahydro-1H-cyclopropa[3,4]cyclopenta[1,2-c]pyrazol-1-yl)acetamide]	100	100	12.5		
Cn1nc(NS(C)(=O)=O)c2c(Cl)ccc(-c3ccc(C#CC(C)(C)O)nc3[C@H](Cc3cccc(F)c3)NC(=O)Cn3nc(C(F)(F)F)c4c3C(F)(F)[C@@H]3C[C@H]43)c21 [Compound 187G, N—((S)-1-(3-(4-chloro-1-methyl-3-(methylsulfonamido)-1H-indazol-7-yl)-6-(3-hydroxy-3-methylbut-1-yn-1-yl)pyridin-2-yl)-2-(3-fluorophenyl)ethyl)-2-((3b-S,4aR)-5,5-difluoro-3-(trifluoromethyl)-3b,4,4a,5-tetrahydro-1H-cyclopropa[3,4]cyclopenta[1,2-c]pyrazol-1-yl)acetamide]	84	84	19.8		
CC(C)(O)C#Cc1ccc(-c2cccc3c(N)noc23)c([C@H](Cc2cc(F)cc(F)c2)NC(=O)Cn2nc(C(F)(F)F)c3c2C(F)(F)[C@@H]2C[C@H]32)n1 [Compound 69, N—((S)-1-(3-(3-aminobenzo[d]isoxazol-7-yl)-6-(3-hydroxy-3-methylbut-1-yn-1-yl)pyridin-2-yl)-2-(3,5-difluorophenyl)ethyl)-2-((3b-S,4aR)-5,5-difluoro-3-(trifluoromethyl)-3b,4,4a,5-tetrahydro-1H-cyclopropa[3,4]cyclopenta[1,2-c]pyrazol-1-yl)acetamide]	77	77	0.718		
Cn1nc(NS(C)(=O)=O)c2c(Cl)ccc(-c3ccc(C#CC(C)(C)O)nc3[C@H](Cc3cc(F)cc(F)c3)NC(=O)Cn3nc(C(F)(F)F)c4c3COCC4)c21 [Compound 190, (S)—N-(1-(3-(4 chloro-1-methyl-3-(methylsulfonamido)-1H-indazol-7-yl)-6-(3-hydroxy-3-methylbut-1-yn-1-yl)pyridin-2-yl)-2-(3,5-difluorophenyl)ethyl)-2-(3-(trifluoromethyl)-4,5-dihydropyrano[3,4-c]pyrazol-1(7H)-yl)acetamide]	98	98	13.9		
Cn1nc(NS(N)(=O)=O)c2cccc(-c3ccc(C#CC(C)(C)O)nc3[C@H](Cc3cc(F)cc(F)c3)NC(=O)Cn3nc(C(F)(F)F)c4c3C(F)(F)[C@@H]3C[C@H]43)c21 [Compound 44, 2-((3bS,4aR)-5,5-difluoro-3-(trifluoromethyl)-3b,4,4a,5-tetrahydro-1H-cyclopropa[3,4]cyclopenta[1,2-c]pyrazol-1-yl)-N—((S)-2-(3,5-difluorophenyl)-1-(6-(3-hydroxy-3-methylbut-1-yn-1-yl)-3-(1-methyl-3-(sulfamoylamino)-1H-indazol-7-yl)pyridin-2-yl)ethyl)acetamide]	94	94	6.82		
CNc1cc(-c2ccc(Cl)c3c(NS(C)(=O)=O)nn(C)c23)c([C@H](Cc2cc(F)cc(F)c2)NC(=O)Cn2nc(C(F)F)c3c2C(F)(F)[C@@H]2C[C@H]32)nc1C#CC(C)(C)O [Compound 182L, N—((S)-1-(3-(4-chloro-1-methyl-3-(methylsulfonamido)-1H-indazol-7-yl)-6-(3-hydroxy-3-methylbut-1-yn-1-yl)-5-(methylamino)pyridin-2-yl)-2-(3,5-difluorophenyl)ethyl)-2-((3b-S,4aR)-3-(difluoromethyl)-5,5-difluoro-3b,4,4a,5-tetrahydro-1H-cyclopropa[3,4]cyclopenta[1,2-c]pyrazol-1-yl)acetamide]	100	100	9.83		
Cn1nc(NS(C)(=O)=O)c2c(Cl)ccc(-c3ccc(C#CC(C)(O)C(F)F)nc3[C@H](Cc3cc(F)cc(F)c3)NC(=O)Cn3nc(C(F)(F)F)c4c3C(F)(F)[C@@H]3C[C@H]43)c21 (stereo partly drawn) [Compound 157G, N-((1S)-1-(3-(4-chloro-1-methyl-3-(methylsulfonamido)-1H-indazol-7-yl)-6-(4,4-difluoro-3-hydroxy-3-methylbut-1-yn-1-yl)pyridin-2-yl)-2-(3,5-difluorophenyl)ethyl)-2-((3b-S,4aR)-5,5-difluoro-3-(trifluoromethyl)-3b,4,4a,5-tetrahydro-1H-cyclopropa[3,4]cyclopenta[1,2-c]pyrazol-1-yl)acetamide]	87	87	10.9		
CC(C)(O)C#Cc1ccc(-c2ccc3[nH]nc(N)c3c2)c([C@H](Cc2cc(F)cc(F)c2)NC(=O)Cn2nc(C(F)(F)F)c3c2C(F)(F)[C@@H]2C[C@H]32)n1 [Compound 46, N—((S)-1-(3-(3-amino-1H-indazol-5-yl)-6-(3-hydroxy-3-methylbut-1-yn-1-yl)pyridin-2-yl)-2-(3,5-difluorophenyl)ethyl)-2-((3b-S,4aR)-5,5-difluoro-3-(trifluoromethyl)-3b,4,4a,5-tetrahydro-1H-cyclopropa[3,4]cyclopenta[1,2-c]pyrazol-1-yl)acetamide]	87	89	10.5		
Cn1nc(NS(C)(=O)=O)c2c(Cl)ccc(-c3ccc(C#CC(C)(O)CF)nc3[C@H](Cc3cc(F)cc(F)c3)NC(=O)Cn3nc(C(F)F)c4c3C(F)(F)[C@@H]3C[C@H]43)c21 (stereo partly drawn) [Compound 144, N-((1S)-1-(3-(4-chloro-1-methyl-3-(methylsulfonamido)-1H-indazol-7-yl)-6-(4-fluoro-3-hydroxy-3-methylbut-1-yn-1-yl)pyridin-2-yl)-2-(3,5-difluorophenyl)ethyl)-2-((3b-S,4aR)-3-(difluoromethyl)-5,5-difluoro-3b,4,4a,5-tetrahydro-1H-cyclopropa[3,4]cyclopenta[1,2-c]pyrazol-1-yl)acetamide]	95	95	16.2		
